In patent publication US6916923B2 (Hoffmann-La Roche Inc., priority 1999, dated 2005):
pIC50: −log10 of the molar value.

What was measured:
[1] = target: T1, Recombinant active human Cyclin E/CDK2 complexes (Homo sapiens, UniProt P24941); assay: CDK2 FlashPlate Assay (inhibition of Rb phosphorylation); assay type: biochemical; conditions: Cyclin E/CDK2, Rb substrate, 33P-ATP, 25 minutes at room temperature; read-out: Inhibition of Cdk2 - IC50 Range
T1 construct: made in house; host or cells: insect cells
Description: To determine inhibition of CDK2 activity, purified recombinant retinoblastoma (Rb) protein was coated on 96 well FlashPlates (New England Nuclear, Boston, Mass.). Rb is a natural substrate for phosphorylation by CDK2 (Herwig and Strauss Eurr. J. Biochem., Vol. 246 (1997) pp. 581-601 and references therein). Recombinant active human Cyclin E/CDK2 complexes were partially purified from extracts of insect cells. The active Cyclin E/CDK2 was added to the Rb-coated FlashPlates along with ^33P-ATP and dilutions of test compounds. Plates were incubated for 25 minutes at room temperature with shaking, then washed and counted in the Topcount scintillation counter (Packard Instrument Co., Downers Grove, Ill.). Dilutions of test compounds were tested in duplicate in each assay. The percent inhibition of Rb phosphorylation, which is a measure of the inhibition of CDK2 activity, was determined according to the following formula: [formula] where “test compound” refers to the average counts per minute of the test duplicates, “nonspecific” refers to the average counts per minute when no Cyclin E/CDK2 was added, and “total” refers to the average counts per minute when no compound was added.

[2] = test system: colon adenocarcinoma line SW480; assay: SW480 cell-based antiproliferative (MTT) assay; conditions: Homo sapiens, SW480, 144 h, 1000 cells per well, 6 days post addition of test compound, read-out: Antiproliferative Activity SW480 (colon) Assay - IC50 Range
Description: (§1) The estrogen receptor negative epithelial breast carcinoma line (MDA-MB-435) was purchased from American Type Cell Culture Collection (ATCC; Rockville, Md.) and was grown in the medium recommended by ATCC. For analysis of the effect of the test compounds on growth of these cells, the cells were plated at 2000 cells per well in a 96-well tissue culture plate, and were incubated overnight at 37° C. with 5% CO2. The next day, the test compounds were dissolved in 100% dimethyl sulfoxide (DMSO) to yield a 10 mM stock solution. Each compound was diluted with sterile medium to 1 mM in a sufficient quantity to yield a final concentration of 120 μM. The compounds were then serially diluted in medium with 1.2% DMSO. One-fourth final volume of the diluted compounds was transferred to 96 well plates. Test compounds were assayed in duplicate. DMSO was added to a row of “control cells” such that the final concentration of DMSO in each well was 0.3%. Wells to which no cells were added served as the “blank.” Wells to which no inhibitor was added served as “no inhibitor control”. The plates were returned to the incubator, and 5 days post addition of test compound, were analyzed as described below.
(§2) 3-(4,5-Dimethylthiazole-2-yl)-2,5-diphenyl-2H-tetrazolium bromide (thiazolyl blue; MTT) was added to each well to yield a final concentration of 1 mg/mL. The plates were then incubated at 37° C. for 3 hours. The plates were centrifuged at 1000 rpm for 5 minutes prior to aspiration of the MTT-containing medium. The MTT-containing medium was then removed and 100 μL 100% ethanol was added to each well to dissolve the resulting formazan metabolite. To ensure complete dissolution, plates were shaken for 15 minutes at room temperature. Absorbencies were read in a microtiter plate reader (Molecular Dynamics) at a wavelength of 570 nm with a 650 nm reference. Percent inhibition was calculated by subtracting the absorbance of the blank (no cell) wells from all wells, then subtracting the division of the average absorbance of each test duplicate by the average of the controls from 1.00. Inhibitory concentrations (IC50) were determined from the linear regression of a plot of the logarithm of the concentration versus the percent inhibition.
The colon adenocarcinoma line SW480 and the colon carcinoma line HCT-116 also were obtained from the ATCC and were tested according to the same protocol provided above for MDA-MB435 cell based assay with the following modifications. Cell line SW480 was plated at 1000 cells per well and analyzed at 6 days post addition of the test compound. Cell line HCT-116 was plated at 1000 cells per well and analyzed at 4 days post addition of test compound.

[3] = test system: estrogen receptor negative epithelial breast carcinoma line (MDA-MB-435); assay: MDA-MB-435 cell-based antiproliferative (MTT) assay; conditions: Homo sapiens, MDA-MB-435, 120 h, 2000 cells per well, 5 days post addition of test compound, read-out: Antiproliferative Activity of MDA-MB435 (breast) Assay - IC50 Range
Description: as §1, §2

pIC50 [1]	pIC50 [2]	pIC50 [3]	SMILES
4.52 to 5.00			Clc1ccc2c(c1)C(c1ccccc1Cl)=Nc1c[nH]nc1N2 [Compound A4, 5-(2-chlorophenyl)-7-chloro-pyrazolo[3,4][1,4]benzodiazepine]
5.00 to 6.00			Clc1ccc2c(c1)C(c1ccccc1)=Nc1c[nH]nc1N2 [Compound A6, 5-phenyl-7-chloro-pyrazolo[3,4][1,4]benzodiazepine]
5.00 to 6.00			Fc1ccccc1C1=Nc2c[nH]nc2Nc2ccc(Cl)cc21 [Compound A7, 5-(2-fluorophenyl)-7-chloro-pyrazolo[3,4][1,4]benzodiazepine]
5.00 to 6.00	4.52 to 5.00		Fc1ccc2c(c1)C(c1ccccc1F)=Nc1c[nH]nc1N2 [Compound A11, 5-(2-fluorophenyl)-7-fluoro-pyrazolo[3,4][1,4]benzodiazepine]
6.00 to 8.00			O=[N+]([O-])c1ccc2c(c1)C(c1ccccc1C(F)(F)F)=Nc1c[nH]nc1N2 [Compound A17, 5-(2-trifluoromethylphenyl)-7-nitro-pyrazolo[3,4][1,4]benzodiazepine]
5.00 to 6.00			COC(=O)c1ccc2c(c1)C(c1ccccc1)=Nc1c[nH]nc1N2 [Compound A18, 5-phenyl-7-carbomethoxy-pyrazolo[3,4][1,4]benzodiazepine]
5.00 to 6.00			Fc1ccccc1C1=Nc2c[nH]nc2Nc2ccc(I)cc21 [Compound A19, 5-(2-fluorophenyl)-7-iodo-pyrazolo[3,4][1,4]benzodiazepine]
6.00 to 8.00			CCOC(=O)c1ccc2c(c1)C(c1ccccc1F)=Nc1c[nH]nc1N2 [Compound A20, 5-(2-fluorophenyl)-7-carboethoxy-pyrazolo[3,4][1,4]benzodiazepine]
5.00 to 6.00		4.52 to 5.00	CCOC(=O)c1[nH]nc2c1N=C(c1ccccc1Cl)c1cc([N+](=O)[O-])ccc1N2 [Compound B2, 3-carboethoxy-5-(2-chlorophenyl)-7-nitro-pyrazolo[3,4][1,4]benzodiazepine]
5.00 to 6.00			CC(C)Cc1[nH]nc2c1N=C(c1ccccc1Cl)c1cc([N+](=O)[O-])ccc1N2 [Compound B11, 3-(2-methylpropyl)-5-(2-chlorophenyl)-7-nitro-pyrazolo[3,4][1,4]benzodiazepine]
6.00 to 8.00		5.00 to 5.96	O=[N+]([O-])c1ccc2c(c1)C(c1ccccc1Cl)=Nc1c(n[nH]c1C(F)(F)F)N2 [Compound B12, 3-trifluoromethyl-5-(2-chlorophenyl)-7-nitro-pyrazolo[3,4][1,4]benzodiazepine]
6.00 to 8.00			O=[N+]([O-])c1ccc2c(c1)C(c1ccccc1Cl)=Nc1c(n[nH]c1-c1nccs1)N2 [Compound B13, 3-(1-thiazolyl)-5-(2-chlorophenyl)-7-nitro-pyrazolo[3,4][1,4]benzodiazepine]
6.00 to 8.00		5.00 to 5.96	O=[N+]([O-])c1ccc2c(c1)C(c1ccccc1Cl)=Nc1c(n[nH]c1-c1c[nH]cn1)N2 [Compound B14, 3-(4-imidazolyl)-5-(2-chlorophenyl)-7-nitro-pyrazolo[3,4][1,4]benzodiazepine]
6.00 to 8.00		4.52 to 5.00	O=[N+]([O-])c1ccc2c(c1)C(c1ccccc1Cl)=Nc1c(n[nH]c1-c1cc[nH]n1)N2 [Compound B15]
6.00 to 8.00			CCC(C)c1[nH]nc2c1N=C(c1ccccc1Cl)c1cc([N+](=O)[O-])ccc1N2 (stereo not drawn) [Compound B17, 3-(1-methylpropyl)-5-(2-chlorophenyl)-7-nitro-pyrazolo[3,4][1,4]benzodiazepine]
6.00 to 8.00	6.00 to 8.00		Cc1[nH]nc2c1N=C(c1ccccc1F)c1cc(F)ccc1N2 [Compound B26, 3-methyl-5-(2-fluorophenyl)-7-fluoro-pyrazolo[3,4][1,4]benzodiazepine]
6.00 to 8.00	6.00 to 8.00		Cc1[nH]nc2c1N=C(c1ccccc1)c1cc([N+](=O)[O-])ccc1N2 [Compound B27, 3-methyl-5-phenyl-7-nitro-pyrazolo[3,4][1,4]benzodiazepine]

pIC50 [1]	pIC50 [2]	pIC50 [3]	SMILES
6.00 to 8.00			Cc1[nH]nc2c1N=C(c1ccccc1)c1ccccc1N2 [Compound B28, 3-methyl-5-phenyl-pyrazolo[3,4][1,4]benzodiazepine]
6.00 to 8.00	5.00 to 5.96		Cc1[nH]nc2c1N=C(c1ccccc1F)c1cc(Cl)ccc1N2 [Compound B32, 3-methyl-5-(2-fluorophenyl)-7-chloro-pyrazolo[3,4][1,4]benzodiazepine]
5.00 to 6.00	4.52 to 5.00		Cc1[nH]nc2c1N=C(c1ccccc1)c1cc(I)ccc1N2 [Compound B33, 3-methyl-5-phenyl-7-iodo-pyrazolo[3,4][1,4]benzodiazepine]
5.00 to 6.00			O=C(c1ccc2c(c1)C(c1ccccc1F)=Nc1c[nH]nc1N2)N(CCO)CCO [Compound C3, N,N-bis-(2-hydroxyethyl)-5-(2-fluorophenyl)-pyrazolo[3,4][1,4]benzodiazepine-7-carboxamide]
6.00 to 8.00		5.00 to 5.96	CC(C)c1[nH]nc2c1N=C(c1ccccc1Cl)c1cc(N)ccc1N2 [Compound C6, 3-(1-methylethyl)-5-(2-chlorophenyl)-7-amino-pyrazolo[3,4][1,4]benzodiazepine]
6.00 to 8.00		4.52 to 5.00	NC(=O)c1[nH]nc2c1N=C(c1ccccc1Cl)c1cc([N+](=O)[O-])ccc1N2 [Compound C10, 5-(2-chlorophenyl)-7-nitro-pyrazolo[3,4][1,4]benzodiazepine-3-carboxamide]
5.00 to 6.00			CN(C)C(=O)c1[nH]nc2c1N=C(c1ccccc1Cl)c1cc([N+](=O)[O-])ccc1N2 [Compound C11, N,N-dimethyl-5-(2-chlorophenyl)-7-nitro-pyrazolo[3,4][1,4]benzodiazepine-3-carboxamide]
6.00 to 8.00		6.00 to 8.00	O=Cc1[nH]nc2c1N=C(c1ccccc1Cl)c1cc([N+](=O)[O-])ccc1N2 [Compound C13, 5-(2-chlorophenyl)-7-nitro-pyrazolo[3,4][1,4]benzodiazepine-3-carboxaldehyde]
6.00 to 8.00	6.00 to 8.00		Cc1[nH]nc2c1N=C(c1ccccc1F)c1cc(C(N)=O)ccc1N2 [Compound C19, 3-methyl-5-(2-fluorophenyl)-pyrazolo[3,4][1,4]benzodiazepine-7-carboxamide]
6.00 to 8.00	6.00 to 8.00		Cc1[nH]nc2c1N=C(c1ccccc1C(F)(F)F)c1cc([N+](=O)[O-])ccc1N2 [Compound D2]
5.00 to 6.00			Cn1cccc1-c1[nH]nc2c1N=C(c1ccccc1Cl)c1cc([N+](=O)[O-])ccc1N2 [Compound D21]
5.00 to 6.00			O=C(O)c1ccc2c(c1)C(c1ccccc1F)=Nc1c[nH]nc1N2 [Compound D22]
5.00 to 6.00			Cc1ccc(-c2[nH]nc3c2N=C(c2ccccc2Cl)c2cc([N+](=O)[O-])ccc2N3)cc1 [Compound D24]
5.00 to 6.00			Cc1ccc(-c2[nH]nc3c2N=C(c2ccccc2Cl)c2cc([N+](=O)[O-])ccc2N3)s1 [Compound D26]
5.00 to 6.00			CN(C)c1ccc(-c2[nH]nc3c2N=C(c2ccccc2Cl)c2cc([N+](=O)[O-])ccc2N3)cc1 [Compound D28]
5.00 to 6.00			O=[N+]([O-])c1ccc2c(c1)C(c1ccccc1)=Nc1c(n[nH]c1-c1ncc[nH]1)N2 [Compound D34]
4.52 to 5.00			O=[N+]([O-])c1ccc2c(c1)C(c1ccccc1Cl)=Nc1c(n[nH]c1-c1ccccc1[N+](=O)[O-])N2 [Compound D39]
